Results on 18 molecules are retold here after PubChem BioAssay AID256 (DTP/NCI, 2004).

Each structure is given as a SMILES string. Values joined by “and” are separate entries in the source; they are usually repeats but may differ in a detail not shown here. Equal entries are not always repeated. Toxic doses and inconclusive results are not listed.

The test system of this experiment is CD2F1 mice, L1210 leukemia ip, survival T/C. As to the kind of experiment: NCI In Vivo Anticancer Drug Screen. Data for tumor model L1210 Leukemia (intraperitoneal) in CD2F1 (CDF1) mice. The settings on record: endpoint: mean survival time, higher = longer survival. In short, it runs like this:
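Tumor-bearing mice (transplanted tumor) were split into treated and vehicle control groups, and the measured endpoint of each treated group was divided by that of its vehicle controls.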

The mark [1] stands for this setting: dose: 25.0 mg/kg/injection, schedule: Q04DX003 (ip), vehicle: saline.
Setting [2] is: dose: 100.0 mg/kg/injection, schedule: Q01DX009 (ip), vehicle: saline with Tween-80.
Where [3] appears, read: dose: 200.0 mg/kg/injection, schedule: Q01DX009 (ip), vehicle: saline with Tween-80.
The mark [4] stands for this setting: dose: 400.0 mg/kg/injection, schedule: Q01DX009 (ip), vehicle: saline with Tween-80.
Where [5] appears, read: dose: 12.5 mg/kg/injection, schedule: Q01DX009 (ip), vehicle: saline.
[6] abbreviates: dose: 50.0 mg/kg/injection, schedule: Q01DX009 (ip), vehicle: saline.
Where [7] appears, read: dose: 25.0 mg/kg/injection, schedule: Q01DX009 (ip), vehicle: saline with Tween-80.
[8] abbreviates: dose: 100.0 mg/kg/injection, schedule: Q01DX009 (ip), vehicle: Klucel (hydroxypropylcellulose) (HPC).
Where [9] appears, read: dose: 200.0 mg/kg/injection, schedule: Q01DX009 (ip), vehicle: Klucel (hydroxypropylcellulose) (HPC).
[10] abbreviates: dose: 400.0 mg/kg/injection, schedule: Q01DX009 (ip), vehicle: Klucel (hydroxypropylcellulose) (HPC).
Where [11] appears, read: dose: 100.0 mg/kg/injection, schedule: Q04DX003 (ip), vehicle: saline.
Where [12] appears, read: dose: 200.0 mg/kg/injection, schedule: Q04DX003 (ip), vehicle: saline.
Where [13] appears, read: dose: 100.0 mg/kg/injection, schedule: Q01DX009 (ip), vehicle: saline.

Take `ClCC(CCl)N1CCCCC1`: the T/C is 103 % of control (dose: 6.25 mg/kg/injection, schedule: Q01DX001 (ip), vehicle: saline); 102 % of control (dose: 6.25 mg/kg/injection, schedule: Q01DX009 (ip), vehicle: saline sonified); 101 % of control (dose: 6.25 mg/kg/injection, schedule: Q04DX003 (ip), vehicle: saline); 104 % of control (dose: 12.5 mg/kg/injection, schedule: Q01DX001 (ip), vehicle: saline); 109 % of control (dose: 12.5 mg/kg/injection, schedule: Q01DX009 (ip), vehicle: saline sonified); 104 % of control (dose: 12.5 mg/kg/injection, schedule: Q04DX003 (ip), vehicle: saline). Moreover, the T/C (dose: 25.0 mg/kg/injection, schedule: Q01DX001 (ip), vehicle: saline) was 107 % of control and the T/C under setting [1] was 106 % of control.

Consider `OC(c1ccccc1)(c1ccccc1)c1ccc(Cl)cc1`, for which the T/C reads like this: under setting [2], 97 % of control; under setting [3], 101 % of control; under setting [4], 101 % of control.

For the molecule `COc1ccccc1NC(=O)Oc1ccc(Cl)c(C)c1`, the T/C is, setting by setting: (dose: 100.0 mg/kg/injection, schedule: Q04DX002 (ip), vehicle: saline with Tween-80) 103 % of control; (dose: 200.0 mg/kg/injection, schedule: Q04DX002 (ip), vehicle: saline with Tween-80) 103 % of control; (dose: 400.0 mg/kg/injection, schedule: Q04DX002 (ip), vehicle: saline with Tween-80) 96 % of control.

For the molecule `CCc1ccc(NS(=O)(=O)c2ccccc2)cc1`, the T/C under setting [2] was 90 % of control, the T/C under setting [3] was 106 % of control and the T/C under setting [4] is 95 % of control.

Regarding `CC1(C)N=C(N)N=C(N)N1c1ccc(CCC(=O)Nc2ccc(S(=O)(=O)F)cc2)c(Cl)c1`, the T/C is 104 % of control (dose: 6.25 mg/kg/injection, schedule: Q01DX009 (ip), vehicle: saline); 112 % of control (dose: 6.25 mg/kg/injection, schedule: Q01DX009 (ip), vehicle: water); 120 % of control under setting [5]; 112 % of control (dose: 12.5 mg/kg/injection, schedule: Q01DX009 (ip), vehicle: water); 119 % of control (dose: 25.0 mg/kg/injection, schedule: Q01DX009 (ip), vehicle: water); 120 % of control under setting [6].

`CC1C2CC3C(OC(=O)C13)C2I` (centres undefined): the T/C is, setting by setting: under setting [2], 95 % of control; (dose: 100.0 mg/kg/injection, schedule: Q04DX003 (ip), vehicle: saline with Tween-80) 95 % of control; under setting [3], 86 % of control; (dose: 200.0 mg/kg/injection, schedule: Q04DX003 (ip), vehicle: saline with Tween-80) 89 % of control; under setting [4], 92 % of control; (dose: 400.0 mg/kg/injection, schedule: Q04DX003 (ip), vehicle: saline with Tween-80) 87 % of control.

Regarding `Cc1ccc([N+](=O)[O-])c(P(=O)(O)O)c1`, the T/C by setting is: under setting [7], 91 % of control; (dose: 50.0 mg/kg/injection, schedule: Q01DX009 (ip), vehicle: saline with Tween-80) 88 % of control; under setting [2], 87 % of control.

As to `O=C(OCC1OC(n2nc(SCc3ccccc3)c(=S)[nH]c2=O)C(OC(=O)c2ccccc2)C1OC(=O)c1ccccc1)c1ccccc1` (centres undefined), the T/C (dose: 12.5 mg/kg/injection, schedule: Q01DX005 (ip), vehicle: distilled water + Tween-80) is 101 % of control; the T/C (dose: 25.0 mg/kg/injection, schedule: Q01DX005 (ip), vehicle: distilled water + Tween-80) is 95 % of control; the T/C (dose: 50.0 mg/kg/injection, schedule: Q01DX005 (ip), vehicle: distilled water + Tween-80) was 102 % of control; the T/C (dose: 100.0 mg/kg/injection, schedule: Q01DX005 (ip), vehicle: distilled water + Tween-80) is 93 % of control; the T/C (dose: 200.0 mg/kg/injection, schedule: Q01DX005 (ip), vehicle: distilled water + Tween-80) is 95 % of control.

For `NC(=O)C(C(N)=O)c1ccnc2ccccc12`, the T/C (dose: 6.25 mg/kg/injection, schedule: Q01DX001 (ip), vehicle: saline with Tween-80) was 102 % of control; the T/C (dose: 6.25 mg/kg/injection, schedule: Q01DX009 (ip), vehicle: saline with Tween-80) is 97 % of control; the T/C (dose: 12.5 mg/kg/injection, schedule: Q01DX001 (ip), vehicle: saline with Tween-80) is 103 % of control; the T/C (dose: 12.5 mg/kg/injection, schedule: Q01DX009 (ip), vehicle: saline with Tween-80) was 93 % of control; the T/C (dose: 25.0 mg/kg/injection, schedule: Q01DX001 (ip), vehicle: saline with Tween-80) was 96 % of control; the T/C under setting [7] is 93 % of control.

Take `Cc1ccc(S(=O)(=O)N/N=C/c2ccccc2)cc1`: the T/C is 95 % of control (dose: 50.0 mg/kg/injection, schedule: Q01DX009 (ip), vehicle: Klucel (hydroxypropylcellulose) (HPC)); 98 % of control under setting [8]; 101 % of control under setting [9]; 91 % of control under setting [10].

As for `CCCCCCCCCCCCCCCCN(C)c1ccc(C(=O)OC)cc1[N+](=O)[O-]`, the T/C under setting [8] is 97 % of control; the T/C under setting [11] was 98 % of control; the T/C under setting [9] is 101 % of control; the T/C under setting [12] is 91 % of control; the T/C under setting [10] is 97 % of control; the T/C (dose: 400.0 mg/kg/injection, schedule: Q04DX003 (ip), vehicle: saline) was 95 % of control.

In the case of `CCCCO.[Ti]`, the T/C runs as follows: under setting [2], 103 % of control; under setting [3], 97 % of control; under setting [4], 104 % of control.

As to `CCC[CH2][Sn]1([CH2]CCC)[O]C2C(CO)OC(n3c(Br)c(C(N)=O)c4c(N)ncnc43)C2[O]1` (centres undefined), the T/C (dose: 1.56 mg/kg/injection, schedule: Q01DX009 (ip), vehicle: distilled water + Tween-80) is 100 % of control and the T/C (dose: 3.13 mg/kg/injection, schedule: Q01DX009 (ip), vehicle: distilled water + Tween-80) was 107 % of control.

For `O=S1(=O)OCCCC1=C(c1ccccc1)c1ccccc1`, the T/C was 102 % of control (dose: 75.0 mg/kg/injection, schedule: Q01DX009 (ip), vehicle: saline); 101 % of control (dose: 75.0 mg/kg/injection, schedule: Q04DX003 (ip), vehicle: saline); 97 % of control (dose: 150.0 mg/kg/injection, schedule: Q01DX009 (ip), vehicle: saline); 94 % of control (dose: 150.0 mg/kg/injection, schedule: Q04DX003 (ip), vehicle: saline); 97 % of control (dose: 300.0 mg/kg/injection, schedule: Q01DX009 (ip), vehicle: saline); 97 % of control (dose: 300.0 mg/kg/injection, schedule: Q04DX003 (ip), vehicle: saline).

For `O=C1c2ccccc2C(=O)c2c(O)c(S(=O)(=O)O)cc(O)c21`, the T/C by setting is: under setting [11], 93 % of control; under setting [12], 96 % of control.

Turning to `Cc1ccc(S(=O)(=O)Nc2ccc(I)cc2F)cc1`, the T/C is, setting by setting: under setting [2], 101 % of control; under setting [3], 97 % of control; under setting [4], 97 % of control.

`CC1(C)OC(=O)N(CO)C1=O`: the T/C under setting [5] was 100 % of control and 103 % of control; the T/C (dose: 25.0 mg/kg/injection, schedule: Q01DX009 (ip), vehicle: saline) is 97 % of control and 102 % of control; the T/C under setting [6] is 100 % of control and 102 % of control; the T/C under setting [13] was 114 % of control and 111 % of control; the T/C (dose: 200.0 mg/kg/injection, schedule: Q01DX009 (ip), vehicle: saline) is 120 % of control and 111 % of control; the T/C (dose: 400.0 mg/kg/injection, schedule: Q01DX009 (ip), vehicle: saline) is 91 % of control and 97 % of control.

In the case of `CC(=O)Nc1ccc2nc3ccc(NC(C)=O)cc3[n+](-c3ccccc3)c2c1`, the T/C reads like this: (dose: 16.0 mg/kg/injection, schedule: Q01DX008 (iv), vehicle: saline) 98 % of control; (dose: 25.0 mg/kg/injection, schedule: Q03DX003 (ip), vehicle: saline) 118 % of control; under setting [1], 123 % of control; (dose: 32.0 mg/kg/injection, schedule: Q01DX008 (iv), vehicle: saline) 100 % of control; (dose: 50.0 mg/kg/injection, schedule: Q01DX007 (ip), vehicle: saline) 155 % of control; under setting [6], 157 % of control. The T/C runs as follows: (dose: 64.0 mg/kg/injection, schedule: Q01DX008 (iv), vehicle: saline) 115 % of control; (dose: 100.0 mg/kg/injection, schedule: Q01DX007 (ip), vehicle: saline) 183 % of control; under setting [13], 155 % of control.
